Assay results: the supplement of paper PMC13380429

Assays:
Conditions in all cases: 72 h
HepG2 [1] = assay: cell viability relative to DMSO; higher = less toxic
Vero E6 [2] = assay: as above
Caco-2 [3] = assay: as above
Calu-3 [4] = assay: as above
U2OS [5] = assay: as above
HepG2 [6] = assay: relative viability EC50 (midpoint between 100% and the lowest measured viability); higher = less toxic
Vero E6 [7] = assay: as above
Caco-2 [8] = assay: as above
Calu-3 [9] = assay: as above
U2OS [10] = assay: as above
HepG2 [11] = assay: drug sensitivity score (DSS) for viability; higher = more toxic; extreme values may be limits of the assay
Vero E6 [12] = assay: as above
Caco-2 [13] = assay: as above
Calu-3 [14] = assay: as above
U2OS [15] = assay: as above

Row | SMILES | cell viability (HepG2 [1]; 1 nM) [%] | cell viability (HepG2 [1]; 10 nM) [%] | cell viability (HepG2 [1]; 100 nM) [%] | cell viability (HepG2 [1]; 1000 nM) [%] | cell viability (HepG2 [1]; 10000 nM) [%] | cell viability (Vero E6 [2]; 1 nM) [%] | cell viability (Vero E6 [2]; 10 nM) [%] | cell viability (Vero E6 [2]; 100 nM) [%] | cell viability (Vero E6 [2]; 1000 nM) [%] | cell viability (Vero E6 [2]; 10000 nM) [%] | cell viability (Caco-2 [3]; 1 nM) [%] | cell viability (Caco-2 [3]; 10 nM) [%] | cell viability (Caco-2 [3]; 100 nM) [%] | cell viability (Caco-2 [3]; 1000 nM) [%] | cell viability (Caco-2 [3]; 10000 nM) [%] | cell viability (Calu-3 [4]; 1 nM) [%] | cell viability (Calu-3 [4]; 10 nM) [%] | cell viability (Calu-3 [4]; 100 nM) [%] | cell viability (Calu-3 [4]; 1000 nM) [%] | cell viability (Calu-3 [4]; 10000 nM) [%] | cell viability (U2OS [5]; 1 nM) [%] | cell viability (U2OS [5]; 10 nM) [%] | cell viability (U2OS [5]; 100 nM) [%] | cell viability (U2OS [5]; 1000 nM) [%] | cell viability (U2OS [5]; 10000 nM) [%] | relative viability EC50 (HepG2 [6]) [µM] | relative viability EC50 (Vero E6 [7]) [µM] | relative viability EC50 (Caco-2 [8]) [µM] | relative viability EC50 (Calu-3 [9]) [µM] | relative viability EC50 (U2OS [10]) [µM] | drug sensitivity score (HepG2 [11]) | drug sensitivity score (Vero E6 [12]) | drug sensitivity score (Caco-2 [13]) | drug sensitivity score (Calu-3 [14]) | drug sensitivity score (U2OS [15])
1 | CC1CC(OC(=O)C(O)c2ccccc2)CC(C)(C)C1 (stereo not given) [cyclandelate] | 103 | 91.9 | 100 | 96.3 | 98.3 | 97.8 | 99.1 | 100 | 96.7 | 94.9 | 91.5 | 105 | 94.3 | 105 | 108 | 95.9 | 90.2 | 102 | 95.5 | 99 | 97.2 | 103 | 97.5 | 102 | 97.5 | > 10 | > 10 | > 10 | > 10 | > 10 | 0 | 0 | 0 | 0 | 0
2 | Nc1ccc(S(=O)(=O)c2ccc(N)cc2)cc1 [dapsone] | 112 | 107 | 93.2 | 106 | 96.6 | 98.5 | 106 | 105 | 106 | 100 | 106 | 95.6 | 104 | 100 | 91.7 | 104 | 98.6 | 90.4 | 106 | 101 | 99.3 | 97.1 | 95.8 | 96.2 | 100 | > 10 | > 10 | > 10 | > 10 | > 10 | 0 | 0 | 0 | 0 | 0
3 | Cc1oc(-c2ccccc2)nc1CCC(=O)c1ccc(CC2SC(=O)NC2=O)cc1 (stereo not given) [darglitazone] | 96.9 | 95 | 95.8 | 96.3 | 95.4 | 96 | 90.8 | 83.3 | 76 | 83.3 | 102 | 95.5 | 96.2 | 91.9 | 91.2 | 97.4 | 110 | 114 | 111 | 119 | 109 | 98.7 | 102 | 102 | 103 | > 10 | > 10 | > 10 | > 10 | > 10 | 0 | 4.8 | 0 | 0 | 0
4 | CC(C)Nc1cccnc1N1CCN(C(=O)c2cc3cc(NS(C)(=O)=O)ccc3[nH]2)CC1 [delavirdine] | 98.8 | 108 | 99.2 | 115 | 107 | 92.2 | 99 | 87.9 | 95.3 | 105 | 99.4 | 96.4 | 101 | 101 | 94.2 | 100 | 93 | 104 | 90.5 | 105 | 101 | 101 | 102 | 98.5 | 102 | > 10 | > 10 | > 10 | > 10 | > 10 | 0 | 0 | 0 | 0 | 0
5 | Clc1ccc2c(c1)CCc1cccnc1C2=C1CCNCC1 [desloratadine] | 113 | 90.7 | 97.2 | 110 | 93.1 | 104 | 102 | 104 | 106 | 99.9 | 91.2 | 93.5 | 94.7 | 90.2 | 102 | 99.9 | 100 | 110 | 104 | 106 | 100 | 98.9 | 97.3 | 104 | 95.6 | > 10 | > 10 | > 10 | > 10 | > 10 | 0 | 0 | 0 | 0 | 0
